The results in this text go back to patent US7235584B2, “Non-psychotropic cannabinoids” (Pharmos Corporation, priority 2000, dated 2007).

In assay [1] the test system is rat model of myocardial ischemia. As to the kind of experiment: Rat model of myocardial ischemia and reperfusion. The class given is in vivo, Sprague-Dawley rats. The conditions noted are these: given 15 minutes before occlusion; 45 minutes occlusion, 4 hours reperfusion. From the text: A rat model of ischemia and reperfusion was used to test the ability of compounds to reduce the volumes of infarction is considered a measure of their potential as cardioprotectors.
The following model of myocardial infarction and heart failure was used to test the ability of compounds to reduce the volumes of infarction is considered a measure of their potential as cardioprotectors.
The methods used are essentially as described in Leor and Kloner (Leor and Klonner, Am. J Cardiol. 75:1292–3 1995). The experiment was performed in a masked fashion. In brief, Sprague-Dawley rats were given either vehicle or PRS-211,095 15 minutes before occlusion. They were subjected to 45 minutes of coronary occlusion and 4 hours of reperfusion, after which the coronary artery was reoccluded and 0.25 ml of Unisperse™ dye was injected IV to determine area of risk (AR). The rats were euthanized and hearts were analyzed as to infarct size using a 1% solution of triphenylteuazolium chloride for 15 minutes at 37° C. The area of necrosis (AN) in each heart was expressed as a percentage of the area at risk. This was multiplied by the weight of each slice to obtain the mass of tissue at risk and necrosis.

In the next assay the test system is transient MCAo in rats. As to the kind of experiment: Transient MCAo evaluated by the staircase test. The class given is in vivo, Sprague Dawley rats. The conditions noted are these: for staircase contralateral performance, pellet consumption (in words): administered 2 hours after start of MCAo. From the text:
The test challenges fine motor, sensory and stereognostic function of the cortex in enabling the forepaw (hand) to identify, grasp and accurately manipulate small objects such as food pellets. Loss of the ability to identify, grasp and manipulate small objects reflects a lesion of the fronto-parietal cortex and is a common and crippling deficit after stroke in humans.
The materials for this procedure are identical to those from Physiological Example 5, except for the different concentrations of PRS-211,095. The procedural differences are as follows: • Male Sprague Dawley rats, 230–270 gr (Harlan, Israel) were used. The following compounds and their respective concentrations were tested:
Dexanabinol and analogs PRS-211,095 and PRS-211,220 in PEG ethanol cosolvent 50 mg/ml. Dexanabinol, the analogs and their vehicle were diluted in Intralipid® 20% (Pharmacia) prior to drug administration.
The procedure is essentially as described in Montoya et al. (Montoya, Campbell-Hope, Pemberton and Dunnet, J. Neurosci. Meth. 36:219–228,1991) Animals were kept under mild food deprivation for 3–5 days, receiving 15-gr. food once a day (between 16:00 and 17:00) and free access to water.
In brief, the staircase box contains two rows of seven stairs in each. Two 45 mg food pellets were placed on each step. Animals were placed in the box for 15 minutes sessions. At the end of the session the number of eaten (grasped) and displaced pellets was counted and recorded. Animals were tested twice a day, 4 hours apart. The first session was performed between 8–9 AM and second between 12–13 PM. The animals were trained until they grasped (ate) at least 8 pellets from each set of stairs for two consecutive sessions. Up to one week after the end of the successful training session the animals underwent transient MCAo.
Transient MCAO was performed in essentially the same manner as described in Physiological example 5 with the following modification at step i:
Two minutes prior to thread removal rats were re-anesthetized and administered IV with Dexanabinol 5 mg/kg, analogs
PRS-211,220 or PRS-211,095 at 0.5, 2.5, 5 or 10 mg/kg or vehicle 5 ml/kg. One additional group was sham-treated.
Animals were allowed to recover from the surgery for five days. The mild food deprivation was re-employed during the days following the ischemic insult. They were tested in the staircase box using the above method for 9–12 days. Animals were weighed twice a week during this period.
At the end of the evaluation period, animals were euthanized with pentobarbitone 100 mg/kg IP. The animals were perfused through the heart with heparinized 4% formaldehyde solution in PBS (pH 7.4). Brains were then removed, and kept in the same solution for at least 24h. Then the brains—from the rostral side of the cortex to the cerebellum—were sunk in 30% sucrose in PBS, cryosectioned (20 μm), dried and stained with thionin for histological evaluation of the brain infarct volume. Eight sections at the levels of: 3.3;+2.8;+1.8; +0.8; −0.4;−1.4; −2.2; and −3.4 from Bregma were measured (Swanson, Rat Brain Atlas, 1992). Sections were captured by a CCD camera (V-tech MP-470) and image analyzed (Scion image 1.62A). Infarct size was determined from the series of the 8 sections by either calculation of the infarct volume (mm3) by summing the series of mean lesion areas of two adjacent sections multiplied by the distance between them or calculation of the mean infarct size as percentage of the contralateral hemisphere size; calculation of the mean of the surviving ipsilateral side as percentage of the contralateral hemisphere size; calculation of the mean ipsilateral side ventricle as percentage of the contralateral hemisphere ventricle.
• a. The infarct size was compared using ANOVA (analysis of variance) followed by Duncan's post hoc test. • b. The staircase task performance was evaluated after collecting the data and compressing it into four blocks of six trials: […]

Another assay concerns kainic acid binding. As to the kind of experiment: Kainic acid binding to rat forebrain membranes.
For the next assay, the system named is PGE2. As to the kind of experiment: Inhibition of prostaglandin (PGE2) synthesis in LPS-stimulated macrophage cell cultures. The class given is cell-based. As for the experimental part: The inhibitory effect of the new derivatives of Dexanabinol on prostaglandin synthesis is evaluated in macrophage cell cultures following LPS exposure to induce the inflammatory response. These assays are an indication of the anti-inflammatory activity of the individual analogs.
The inhibitory effect of Dexanabinol new analogs on prostaglandin synthesis was evaluated in macrophage cell cultures. Macrophages were seeded in a 24 well NUNC plates, and incubated with DMEM medium for 24 hours to allow attachment to plastic. The wells were vacuumed and a different new analog is added for 1 hour. Treatments are done in triplicates. Following, LPS was added for a duration of 3–24 extra hours, to induce the inflammatory response. The supernatants were collected and analyzed for PGE2 by enzyme immunoassay technique Biotrak kit (Amersham Pharmacia Biotech).

Where [2] appears, read: 5 mg/kg, administered 3 hours following transient MCAo.

For `CCCCCCC(C)(C)c1cc(O)c2c(c1)OC(C)(C)C1CC=C(CSc3ncc[nH]3)CC21` (single isomer, unassigned; (+)) [211,092-000], in assay [1], the “infarct size (AN/AR, AN/LV), FIG. 13” value is reported as “clear decrease in infarct size”. Further, the “increase in pellet consumption, session 3” value (shortened to “increase”) is recorded as 58% in the assay on transient MCAo in rats (setting [2]) and 30% in the assay on transient MCAo in rats (5 mg/kg, administered 6 hours following transient MCAo).
As to `CCCCCCC(C)(C)c1cc(O)c2c(c1)OC(C)(C)C1CC=C(Cn3ccnc3)CC21.Cl` (single isomer, unassigned; (+)) [211,095-000, (+)-(3S ,4S )-6,6-Dimethyl-(1,1-dimethylheptyl)-1-hydroxy-9-(imidazolomethyl)-6a,7,10,10a-tetrahydro-6H-dibenzo[b,d]pyran], the “staircase contralateral performance, pellet consumption (in words)” value was “moderately improved pellet consumption” with transient MCAo in rats (0.5 mg/kg), “moderately improved pellet consumption” in the assay on transient MCAo in rats (2.5 mg/kg), “robust improvement” in the assay with transient MCAo in rats (5 mg/kg) and “robust improvement” with transient MCAo in rats (10 mg/kg). Moreover, the “protection of infarct volume (histopathology)” value in the assay with transient MCAo in rats (2.5 mg/kg) is “No protection”. For the same compound, the displaced pellets parameter result in the assay with transient MCAo in rats (5 mg/kg) is “improved performance”. In addition, the “increase” value with transient MCAo in rats (setting [2]) is 17%.
`CCCCCCC(C)(C)c1cc(O)c2c(c1)OC(C)(C)[C@H]1CC=C(CO)CC21` (stereo partly drawn) [211,007-000, 1,1 dimethyl heptyl-(3S,4S)-7-hydroxy-Δ^6-tetrahydrocannabinol]: the “inhibition of kainic acid binding” value in the assay with kainic acid binding is on record as “unable to inhibit”. Further, the “staircase contralateral performance, pellet consumption (in words)” value in the assay on transient MCAo in rats (0.5 mg/kg) is given as “No improvement”. Further, the displaced pellets parameter result with transient MCAo in rats (5 mg/kg) is “improved performance”.
As for `CCCCCCC(C)(C)c1cc(O)c2c(c1)OC(C)(C)[C@H]1CC=C(Cn3cccn3)C[C@H]21` [211,220-000, (+)-(3S,4S)-6,6-Dimethyl-(1,1-dimethylheptyl)-1-hydroxy-9-(pyrazolomethyl)-6a,7,10,10a-tetrahydro-6H-dibenzo[b,d]pyran], in the assay on transient MCAo in rats (0.5 mg/kg), the displaced pellets parameter result is listed as “improved performance”. In addition, the “increase” value turned out to be 27% in the assay with transient MCAo in rats (0.5 mg/kg, administered 3 hours following transient MCAo) and 40% in the assay with transient MCAo in rats (0.5 mg/kg, administered 6 hours following transient MCAo). In addition, at 10 µM the inhibition in the assay with PGE2 was 59%.
